Values of other authors in US20100111901A1, “TRIAZOLE INHIBITORS OF AROMATASE” (priority 2008, published 2010).

Experiments:
CYP1A2 = CYP1A2 (Homo sapiens, UniProt P05177); conditions: strongest in decreasing order of magnitude
[1] = in vivo
CYP2D6 = CYP2D6 (Homo sapiens, UniProt P10635)
CYP2A6 = CYP2A6 (Homo sapiens, UniProt P11509)
Chain of CYP2A6 (P11509 whole entry): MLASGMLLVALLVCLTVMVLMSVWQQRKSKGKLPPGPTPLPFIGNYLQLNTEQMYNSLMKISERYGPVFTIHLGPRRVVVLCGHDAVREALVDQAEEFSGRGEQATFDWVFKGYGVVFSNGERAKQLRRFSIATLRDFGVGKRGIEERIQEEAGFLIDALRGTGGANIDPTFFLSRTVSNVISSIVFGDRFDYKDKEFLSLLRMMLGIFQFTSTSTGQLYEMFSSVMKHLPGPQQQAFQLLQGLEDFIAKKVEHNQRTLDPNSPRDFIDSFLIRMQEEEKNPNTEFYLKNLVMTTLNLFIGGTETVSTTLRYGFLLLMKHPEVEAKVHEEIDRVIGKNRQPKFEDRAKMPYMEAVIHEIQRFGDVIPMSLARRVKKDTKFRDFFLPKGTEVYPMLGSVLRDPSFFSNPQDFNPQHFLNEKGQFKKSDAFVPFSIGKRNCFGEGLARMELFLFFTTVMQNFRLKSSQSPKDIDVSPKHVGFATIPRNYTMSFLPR

Chain of CYP2D6 (P10635 whole entry): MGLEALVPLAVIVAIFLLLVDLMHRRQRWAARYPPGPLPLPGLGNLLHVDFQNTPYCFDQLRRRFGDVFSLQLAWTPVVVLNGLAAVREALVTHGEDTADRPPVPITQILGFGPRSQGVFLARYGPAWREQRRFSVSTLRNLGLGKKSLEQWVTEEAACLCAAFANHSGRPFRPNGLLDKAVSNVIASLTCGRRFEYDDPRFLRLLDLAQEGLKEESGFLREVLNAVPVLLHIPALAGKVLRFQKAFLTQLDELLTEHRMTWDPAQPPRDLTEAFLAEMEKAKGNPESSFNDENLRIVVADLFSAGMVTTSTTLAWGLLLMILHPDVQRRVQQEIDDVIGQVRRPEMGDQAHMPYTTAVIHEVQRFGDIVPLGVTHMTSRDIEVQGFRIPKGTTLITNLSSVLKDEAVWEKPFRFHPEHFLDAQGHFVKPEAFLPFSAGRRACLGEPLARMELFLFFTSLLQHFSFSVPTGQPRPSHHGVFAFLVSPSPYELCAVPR
Chain of CYP1A2 (P05177 whole entry): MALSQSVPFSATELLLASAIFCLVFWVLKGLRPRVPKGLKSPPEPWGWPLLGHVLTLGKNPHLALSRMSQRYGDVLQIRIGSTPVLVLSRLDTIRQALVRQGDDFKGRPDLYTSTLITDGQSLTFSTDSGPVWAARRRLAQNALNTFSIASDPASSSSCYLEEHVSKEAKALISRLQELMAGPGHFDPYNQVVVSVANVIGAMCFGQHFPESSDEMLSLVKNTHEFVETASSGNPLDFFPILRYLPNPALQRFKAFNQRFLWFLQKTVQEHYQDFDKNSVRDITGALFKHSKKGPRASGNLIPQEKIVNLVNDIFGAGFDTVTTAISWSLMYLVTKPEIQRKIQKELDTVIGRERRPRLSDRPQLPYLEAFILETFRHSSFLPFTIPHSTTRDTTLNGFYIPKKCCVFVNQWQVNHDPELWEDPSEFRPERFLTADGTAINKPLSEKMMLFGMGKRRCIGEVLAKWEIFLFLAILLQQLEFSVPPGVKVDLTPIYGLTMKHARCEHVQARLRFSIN

inhibition of CYP1A2 (CYP1A2): inhibits | mean terminal elimination half-life [1]: 40 to 50 h | effect on CYP2D6 (CYP2D6): no effect | effect on CYP2A6 (CYP2A6): no effect
SMILES: CC(C)(C#N)c1cc(Cn2cncn2)cc(C(C)(C)C#N)c1 [Anastrozole, 2-[3-(2-cyano-2-propyl)-5-(1,2,4-triazol-1-ylmethyl)phenyl]-2-methylpropiononitrile]
